Results: patent publication US20260274814A1, “THIENYL COMPOUNDS FOR THE TREATMENT OF A CENTRAL NERVOUS SYSTEM DISEASE OR DISORDER” (Coreterra Therapeutics, Inc., priority 2023, published 2026)
Counter-ions that a name gives are not always drawn.

Test system: mice
Assay: Neuropharmacological Assay (SmartCube): automated behavioral signature of compound-treated mice compared with a database of reference drug classes
Type: in vivo
Settings: for minimal effective dose: Mus musculus, ip, read-out: MED; for minimal effective dose / MED: minimal effective dose: dose having 45% or more total activity in SmartCube, i.p., if only one dose tested, that dose is shown; for AG / AN / AP / AX / CE / HL / MS / PS / SH / UK / AD: SmartCube class probability, 3.0 mg/kg i.p., 15 min before test
Method in brief: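 Dose-response work typically spanned 0.3–10 mpk, widened or narrowed to obtain a full curve, with i.p. administration 15 min pre-test. MED is defined as the dose producing ≥45% total SmartCube activity; single-dose entries list the tested dose.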

Compound	minimal effective dose [mg/kg]	AG	AN	AP	AX	CE	HL	MS	PS	SH	UK	AD (hydrochloride, 3 mg/kg)	MED (hydrochloride) [mpk]	AP (hydrochloride, 3 mg/kg)	UK (hydrochloride, 3 mg/kg)	MED [mpk]	AD	AX (hydrochloride, 3 mg/kg)	CE (hydrochloride, 3 mg/kg)	PS (hydrochloride, 3 mg/kg)
NC1CCc2c(C(F)(F)F)csc2C1 (single isomer, unassigned) [Compound 243, 3-(trifluoromethyl)-4,5,6,7-tetrahydrobenzothiophen-6-amine hydrochloride]	3	ND (^ <4%)	ND (^ <4%)	ND (^ <4%)	ND (^ <4%)	ND (^ <4%)	ND (^ <4%)	ND (^ <4%)	ND (^ <4%)	ND (^ <4%)	ND (^ <4%)	++ (≥24%)								
NC1CCc2c(C(F)(F)F)csc2C1 (single isomer, unassigned) [Compound 244, 3-(trifluoromethyl)-4,5,6,7-tetrahydrobenzothiophen-6-amine hydrochloride]		ND (^ <4%)	ND (^ <4%)	ND (^ <4%)	ND (^ <4%)	ND (^ <4%)	ND (^ <4%)	ND (^ <4%)	ND (^ <4%)	ND (^ <4%)	ND (^ <4%)	++++ (≥74%)	<3							
CNC1(C)CCc2cc(C(F)(F)F)sc2C1.Cl (single isomer, unassigned) [Compound 245, N, 6-dimethyl-2-(trifluoromethyl)-5,7-dihydro-4H-benzothiophen-6-amine hydrochloride]	3	ND (^ <4%)	ND (^ <4%)		ND (^ <4%)	ND (^ <4%)	ND (^ <4%)	ND (^ <4%)	ND (^ <4%)	ND (^ <4%)		++ (≥24%)		ND (^ <4%)	+ (≥4%)					
CNC1(C)CCc2cc(C(F)(F)F)sc2C1.Cl (single isomer, unassigned) [Compound 246, N, 6-dimethyl-2-(trifluoromethyl)-5,7-dihydro-4H-benzothiophen-6-amine hydrochloride]		ND (^ <4%)	ND (^ <4%)		ND (^ <4%)	ND (^ <4%)	ND (^ <4%)	ND (^ <4%)	ND (^ <4%)	ND (^ <4%)		+ (≥4%)		++ (≥24%)	++ (≥24%)	3				
CNC1CCc2scc(C3CC3)c2C1 (single isomer, unassigned) [Compound 249, 3-cyclopropyl-N-methyl-4,5,6,7-tetrahydrobenzothiophen-5-amine hydrochloride]	3	ND (^ <4%)	ND (^ <4%)			ND (^ <4%)	ND (^ <4%)	ND (^ <4%)	ND (^ <4%)	ND (^ <4%)				ND (^ <4%)	++ (≥24%)		ND (^ <4%)	ND (^ <4%)		
CNC1CCc2scc(C3CC3)c2C1 (single isomer, unassigned) [Compound 250, 3-cyclopropyl-N-methyl-4,5,6,7-tetrahydrobenzothiophen-5-amine hydrochloride]		ND (^ <4%)	ND (^ <4%)			ND (^ <4%)	ND (^ <4%)	ND (^ <4%)	ND (^ <4%)	ND (^ <4%)				+ (≥4%)	ND (^ <4%)	3	ND (^ <4%)	++++ (≥74%)		
CCc1csc2c1CC(NC)CC2 (single isomer, unassigned) [Compound 251, 3-ethyl-N-methyl-4,5,6,7-tetrahydrobenzothiophen-5-amine hydrochloride]	> 3	ND (^ <4%)	ND (^ <4%)		ND (^ <4%)		ND (^ <4%)	ND (^ <4%)		ND (^ <4%)				ND (^ <4%)	++ (≥24%)		ND (^ <4%)			
CCc1csc2c1CC(NC)CC2 (single isomer, unassigned) [Compound 252, 3-ethyl-N-methyl-4,5,6,7-tetrahydrobenzothiophen-5-amine hydrochloride]		ND (^ <4%)	ND (^ <4%)		ND (^ <4%)		ND (^ <4%)	ND (^ <4%)		ND (^ <4%)			3	+ (≥4%)	+++ (≥49%)		ND (^ <4%)		ND (^ <4%)	ND (^ <4%)
NC1CCc2scc(C(F)(F)F)c2C1 (single isomer, unassigned) [Compound 254, 3-(trifluoromethyl)-4,5,6,7-tetrahydrobenzothiophen-5-amine hydrochloride]	> 3	ND (^ <4%)	ND (^ <4%)	ND (^ <4%)	ND (^ <4%)	ND (^ <4%)	ND (^ <4%)	ND (^ <4%)	ND (^ <4%)	ND (^ <4%)					+ (≥4%)		ND (^ <4%)			
NC1CCc2scc(C(F)(F)F)c2C1 (single isomer, unassigned) [Compound 255, 3-(trifluoromethyl)-4,5,6,7-tetrahydrobenzothiophen-5-amine hydrochloride]		ND (^ <4%)	ND (^ <4%)	ND (^ <4%)	ND (^ <4%)	ND (^ <4%)	ND (^ <4%)	ND (^ <4%)	ND (^ <4%)	ND (^ <4%)					ND (^ <4%)	>3	ND (^ <4%)			
CNC1CCc2sc(-c3ccccc3)cc2C1.Cl (single isomer, unassigned) [Compound 256, N-methyl-2-phenyl-4,5,6,7-tetrahydrobenzothiophen-5-amine hydrochloride]	> 3	ND (^ <4%)	ND (^ <4%)	ND (^ <4%)	ND (^ <4%)	ND (^ <4%)	ND (^ <4%)	ND (^ <4%)	ND (^ <4%)	ND (^ <4%)					+ (≥4%)		ND (^ <4%)			
CNC1CCc2sc(-c3ccccc3)cc2C1.Cl (single isomer, unassigned) [Compound 257, N-methyl-2-phenyl-4,5,6,7-tetrahydrobenzothiophen-5-amine hydrochloride]		ND (^ <4%)	ND (^ <4%)	ND (^ <4%)	ND (^ <4%)	ND (^ <4%)	ND (^ <4%)	ND (^ <4%)	ND (^ <4%)	ND (^ <4%)					++ (≥24%)	>3	ND (^ <4%)			
CNC1COc2csc(C(F)(F)F)c2C1 (single isomer, unassigned) [Compound 258, N-methyl-5-(trifluoromethyl)-3,4-dihydro-2H-thieno[3,4-b]pyran-3-amine hydrochloride]	> 3	ND (^ <4%)	ND (^ <4%)	ND (^ <4%)	ND (^ <4%)	ND (^ <4%)	ND (^ <4%)	ND (^ <4%)	ND (^ <4%)	ND (^ <4%)					+ (≥4%)		ND (^ <4%)			
CNC1COc2csc(C(F)(F)F)c2C1 (single isomer, unassigned) [Compound 259, N-methyl-5-(trifluoromethyl)-3,4-dihydro-2H-thieno[3,4-b]pyran-3-amine hydrochloride]		ND (^ <4%)	ND (^ <4%)	ND (^ <4%)	ND (^ <4%)	ND (^ <4%)	ND (^ <4%)	ND (^ <4%)	ND (^ <4%)	ND (^ <4%)					++ (≥24%)	>3	ND (^ <4%)			
CNC1(C)CCc2c(C(F)(F)F)csc2C1.Cl (single isomer, unassigned) [Compound 261, N, 6-dimethyl-3-(trifluoromethyl)-5,7-dihydro-4H-benzothiophen-6-amine hydrochloride]	3	ND (^ <4%)	ND (^ <4%)	ND (^ <4%)	ND (^ <4%)	ND (^ <4%)	ND (^ <4%)	ND (^ <4%)	ND (^ <4%)	ND (^ <4%)		+++ (≥49%)			+ (≥4%)					
CNC1(C)CCc2c(C(F)(F)F)csc2C1.Cl (single isomer, unassigned) [Compound 262, N, 6-dimethyl-3-(trifluoromethyl)-5,7-dihydro-4H-benzothiophen-6-amine hydrochloride]		ND (^ <4%)	ND (^ <4%)	ND (^ <4%)	ND (^ <4%)	ND (^ <4%)	ND (^ <4%)	ND (^ <4%)	ND (^ <4%)	ND (^ <4%)		++ (≥24%)	>3		ND (^ <4%)					
